Laboratory results as given in US5484803A, “Transcutaneous in vivo activation of photosensitive agents in blood” (priority 1995, dated 1996).

Legend:
[1] = system: mouse blood; experiment: Blood cell morphology 2 weeks post-treatment; assay type: in vivo, Balb/c mice
Description: Blood Tests: Blood was drawn into syringes containing 50 μl of heparin (1000 units/ml saline). Blood samples (0.45 ml) from at least 1 mouse per time point were sent to the Diagnostic Laboratory at the University Hospital, University of British Columbia site, for analysis by a Coulter Counter. Blood morphology was determined on blood films prepared from selected samples by a laboratory technologist.
Six Balb/c mice (22±1 g weight) were prepared as described above. Five mice were injected twice (24 hour interval) with BPD from DMSO stock (not liposomal BPD) and exposed to light 1 hour after the injection. One mouse was not injected but was exposed to light (light-only control). During the first treatment the mice were injected with 15 μg BPD/mouse in 200 μl of PBS. During the second treatment the mice were injected with 20 μg BPD/mouse (0.9 mg/kg). A single mouse was used as a control for both treatments.
Immediately post-injection (on both occasions) the animals were kept for 1 hour in the dark and then were placed in individual plastic containers (9×4×5 cm), which were placed in the light box and exposed to light. The individual mice were removed from the light box at different intervals: 15, 30, 45, 60 and 75 min, respectively. The light doses delivered at the surface of the skin were 27, 54, 81, 108 and 135 J/cm^2, respectively. On the second occasion the same light doses were used; however, mice receiving higher light doses on day 1 received lower doses on day 2. The control mouse was exposed to light for 60 min on both occasions. During light exposure, the mice were constantly observed for signs of discomfort or itching. After the second light exposure, the mice were observed daily for a period of 2 weeks for appearance of the skin and general pattern of behavior.
Two weeks post-treatment blood samples were obtained from each mouse by a heart puncture, under halothane anesthesia. Then the mice were sacrificed and autopsied. Their spleen, liver and kidneys were weighed.

[2] = system: mice skin; experiment: Skin photosensitivity and skin changes, transcutaneous activation study; assay type: in vivo
[3] = In vitro photodegradation of BPD in mouse blood; assay type: physicochemical; conditions: for photodegraded BPD, Dose / Photodegraded BPD: in vitro
Description: Determination of BPD Concentration in Plasma: Plasma samples were obtained by centrifugation of blood collected from mice and stored frozen at -20° C. until assessment. The concentration of BPD in the samples was determined by fluorometry using a Jasco Model FP-770 (Japan Spectroscopic Co.) spectrofluorometer and a microcuvette (Far UV Quartz Cell, Starna Cells Inc.). Excitation and emission wavelengths were 439 and 699 nm, respectively. Plasma samples were diluted 20-fold with PBS containing 1% Triton® X-100 immediately before fluorescence was determined. BPD standards were prepared in 5% mouse plasma in PBS with 1% Triton® X-100. Under these conditions the relationship between the concentration of BPD and units of fluorescence was linear (correlation coefficient >0.99) for concentrations between 0.1 ng/ml and 1 μg/ml. The limit of detection was below 0.1 ng/ml sample which corresponded to 2 ng/ml plasma. […] The 699 nm fluorescence peak of BPD was virtually free from any interference.
In order to assess the amount of light penetrating the tissues, in vitro experiments with mouse blood were carried out. The same light source was used, therefore the spectrum of light was the same. The light doses in this experiment were selected to mimic the doses in the in vivo experiments.
Liposomal BPD was added to freshly obtained heparinized mouse blood to achieve a concentration of 1 μg/ml, following which […] aliquots of blood were dispensed into 35 mm diameter petri dishes, which were placed in the light box and exposed to red light. The dishes were irradiated in the light box from below only. The intensity of light was 35 mW/cm^2. Three different light doses, entailing exposure of 30 min, 1 hour and 1.5-hour, were 63, 126 and 189 J/cm^2, respectively. Duplicate dishes were kept covered with aluminum foil. Immediately following light exposure, the blood was collected from the dishes. Then the plasma was separated by centrifugation. The control unexposed samples were processed at time points corresponding to the light exposed samples.
The concentration of BPD in plasma separated from light-exposed and unexposed blood was determined by fluorescence. About 51-83% of BPD was degraded by the ranges of light doses used.

[4] = system: skin; experiment: Skin changes and general behavior after treatment (Example 5 and preceding examples); assay type: in vivo, mice; conditions: maximum observation period 2 weeks
[5] = system: skin; conditions: DBA/2, 4 mg/kg, cited from earlier work
[6] = system: P815 cells; experiment: Surviving clonogenic P815 cells in mouse blood; assay type: in vivo, DBA/2 mice; conditions: average of 3 mice/group
Description: Male mature DBA/2 and Balb/c mice were injected intravenously with P815 and L1210 cells, respectively, preincubated for 1 hour with BPD (liposomal) at 100 ng/ml. Immediately before animal injection, an additional 2 μg of BPD was added to the syringes containing cells. […] One group of mice (shaved and depilated) was exposed immediately to red light (600-900 nm) in the light box for 1.5 hours (162 J/cm^2); the other group was kept in the dark as the control.
Immediately after exposure to light, blood samples were obtained by a heart puncture under halothane anesthesia. The concentration of BPD in plasma of light-exposed and control mice was determined by fluorescence. The number of clonogenic tumor cells in mouse blood was determined by culturing blood samples in culture medium supplemented with 10% bovine serum, using a limiting dilution assay protocol.

For “benzoprophyrin derivative monoacid ring A [BPD]”, the Monocytes ([1]; mouse 1, light 27 then 135 J/cm^2) was 1 % WBC, the Granulocytes ([1]; mouse 1, light 27 then 135 J/cm^2, normal 12-15) was 9 % WBC and the Lymphocytes ([1]; mouse 1, light 27 then 135 J/cm^2, normal 65-85) was 90 % WBC. The Monocytes ([1]; mouse 2, light 54 then 108 J/cm^2) was 1 % WBC, the Granulocytes ([1]; mouse 2, light 54 then 108 J/cm^2, normal 12-15) was 11 % WBC and the Lymphocytes ([1]; mouse 2, light 54 then 108 J/cm^2, normal 65-85) was 88 % WBC. It also gave a Monocytes ([1]; mouse 3, light 81 then 81 J/cm^2) of 3 % WBC, a Granulocytes ([1]; mouse 3, light 81 then 81 J/cm^2, normal 12-15) of 19 % WBC and a Lymphocytes ([1]; mouse 3, light 81 then 81 J/cm^2, normal 65-85) of 78 % WBC. It also gave a Monocytes ([1]; mouse 4, light 108 then 54 J/cm^2) of 2 % WBC, a Granulocytes ([1]; mouse 4, light 108 then 54 J/cm^2, normal 12-15) of 36 % WBC and a Lymphocytes ([1]; mouse 4, light 108 then 54 J/cm^2, normal 65-85) of 62 % WBC. It also gave a Monocytes ([1]; mouse 5, light 135 then 27 J/cm^2) of 1 % WBC, a Granulocytes ([1]; mouse 5, light 135 then 27 J/cm^2, normal 12-15) of 7 % WBC and a Lymphocytes ([1]; mouse 5, light 135 then 27 J/cm^2, normal 65-85) of 92 % WBC. For the same substance, the skin photosensitivity ([2]; 0.9 mg/kg liposomal BPD, 54-162 J/cm^2) was “did not cause skin photosensitivity”, the “changes of the skin” value ([2]; immediately or during the 2 week post-exposure period, 0.9 mg/kg, 30 mW/cm^2) was “no changes of the skin were observed” and the “BPD concentration in plasma separated from blood” value (from here on “BPD concentration”) ([3]; 0 h, no light, BPD 1 μg/ml blood) was 0.760 µg/mL. For the same substance, the “BPD concentration” value ([3]; 1 1/2 h, 189 J/cm^2) was 0.144 µg/mL, the “BPD concentration” value ([3]; 1 1/2 h, no light) was 0.830 µg/mL and the “BPD concentration” value ([3]; 1/2 h, 63 J/cm^2) was 0.394 µg/mL. The “BPD concentration” value ([3]; 1/2 h, no light) was 0.806 µg/mL, the “BPD degraded in vitro” value ([3]; 63-189 J/cm^2, about) was 51-83% and the “BPD concentration” value ([3]; 1 h, 126 J/cm^2) was 0.220 µg/mL. The “BPD concentration” value ([3]; 1 h, no light) was 0.810 µg/mL, the “photodegraded BPD, Dose” value ([3]; 63 J/cm^2) was 0.412 µg/mL and the “Photodegraded BPD” value ([3]; 63 J/cm^2, 1/2 h, 30 min) was 51%. The “photodegraded BPD, Dose” value ([3]; 126 J/cm^2) was 0.590 µg/mL, the “Photodegraded BPD” value ([3]; 126 J/cm^2, 1 h) was 73% and the “photodegraded BPD, Dose” value ([3]; 189 J/cm^2) was 0.686 µg/mL. The “Photodegraded BPD” value ([3]; 189 J/cm^2, 1 1/2 h, 90 min) was 83%, the “skin photosensitivity and change in behavior” value [4] was “neither skin photosensitivity nor change in the behavior of animals were observed” and the “immediate post-exposure changes in the skin” value ([5]; 153 J/cm^2 (170 mW/cm^2) at 3 h) was “no immediate post-exposure changes in the skin were observed”. The skin necrosis ([5]; 153 J/cm^2 (170 mW/cm^2) at 3 h, within first 24 hour post-exposure, progressed up to 96 hours) was “severe skin necrosis”, the healing of wounds ([5]; 153 J/cm^2, eventually) was “the wounds healed and the hair regrew” and the “Surviving cells in blood” value ([6]; Dark control) was 50 P815 cells/2 ml blood/mouse. For the same substance, the “Surviving cells in blood” value ([6]; Light exposed (162 J/cm^2)) was 8 P815 cells/2 ml blood/mouse.
